In PubChem BioAssay (NCI):
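Results reflect a 48-hour exposure of cells in 96-well plates to compound at five concentrations. TGI: concentration producing complete growth inhibition.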

Experiments:
Experiment in all cases: growth of human tumour cells (NCI), 48 h
[1] = test system: OVCAR-5 ovarian
[2] = test system: HCC-2998 colon
[3] = test system: OVCAR-8 ovarian
[4] = test system: U251 CNS
[5] = test system: HOP-92 NSCLC
[6] = test system: SK-MEL-2 melanoma
[7] = test system: HCT-15 colon
[8] = test system: HS 578T breast
[9] = test system: UACC-257 melanoma
[10] = test system: OVCAR-3 ovarian
[11] = test system: COLO 205 colon
[12] = test system: SK-MEL-5 melanoma
[13] = test system: TK-10 renal
[14] = test system: UO-31 renal
[15] = test system: A549 NSCLC
[16] = test system: BT-549 breast
[17] = test system: SK-OV-3 ovarian
[18] = test system: HOP-62 NSCLC
[19] = test system: SN12C renal
[20] = test system: MALME-3M melanoma

SMILES | TGI [1] | TGI [2] | TGI [3] | TGI [4] | TGI [5] | TGI [6] | TGI [7] | TGI [8] | TGI [9] | TGI [10] | TGI [11] | TGI [12] | TGI [13] | TGI [14] | TGI [15] | TGI [16] | TGI [17] | TGI [18] | TGI [19] | TGI [20]
COc1ccc2nc3n(c2c1)C(c1c(F)cccc1F)SC3 (stereo not given) | > 100 µM | > 100 µM | > 100 µM | > 100 µM | > 100 µM | 74.9 µM | > 100 µM | 87.7 µM | > 100 µM | > 100 µM | > 100 µM | > 100 µM | > 100 µM | > 100 µM | > 100 µM | > 100 µM | > 100 µM | > 100 µM | > 100 µM | 
O=C(Cn1c2c(c3ccccc31)CCCC2)N1CCCCC1 | > 100 µM | > 100 µM | > 100 µM |  | > 100 µM | > 100 µM | > 100 µM | > 100 µM | > 100 µM | > 100 µM | > 100 µM | > 100 µM | > 100 µM | > 100 µM | > 100 µM | > 100 µM | > 100 µM | > 100 µM | > 100 µM | > 100 µM
C[C@@H](NC(=O)Cn1c(Cl)nc2ccccc21)c1ccccc1 | > 100 µM | > 100 µM | > 100 µM | > 100 µM | > 100 µM | > 100 µM | > 100 µM | > 100 µM | > 100 µM | > 100 µM | > 100 µM | > 100 µM | > 100 µM | > 100 µM | > 100 µM | > 100 µM | > 100 µM | > 100 µM |  | > 100 µM
CCCCCCc1cc2cc(-c3cn4c(n3)sc3ccccc34)c(=O)oc2cc1O | > 100 µM | > 100 µM | > 100 µM | > 100 µM | > 100 µM | > 100 µM | > 100 µM | > 72.1 µM | > 100 µM | > 100 µM | > 100 µM | > 100 µM | > 100 µM | > 100 µM | > 100 µM | > 100 µM | > 100 µM | > 100 µM | > 100 µM | 
O=c1oc2ccccc2c(O)c1C(c1cccc(C(c2c(O)c3ccccc3oc2=O)c2c(O)c3ccccc3oc2=O)c1)c1c(O)c2ccccc2oc1=O | > 100 µM | 46.2 µM | > 100 µM | > 100 µM | > 100 µM | > 100 µM | > 100 µM | > 100 µM | > 100 µM | > 100 µM | > 100 µM | 95.7 µM | > 100 µM |  | > 100 µM | > 100 µM | > 100 µM | > 100 µM | 83 µM | 
Cc1ccc(C)n2c1nc1cc3ccccc3cc12 | > 100 µM |  | > 100 µM | > 100 µM | > 100 µM |  | > 100 µM | > 100 µM | > 100 µM | > 100 µM | > 100 µM | 93 µM | > 100 µM | 94.4 µM | > 100 µM | > 100 µM | > 100 µM | > 100 µM | > 100 µM | > 100 µM
CC1=NN(C(=O)CC(=O)NC(=O)/C=C\c2ccccc2)C(=O)C1N=Nc1ccc([N+](=O)[O-])cc1 (stereo not given) | > 100 µM | > 100 µM | > 100 µM | > 100 µM | 97.4 µM |  | > 100 µM | > 100 µM |  | > 100 µM | > 100 µM |  | > 100 µM | > 100 µM | > 100 µM | 83.5 µM | > 100 µM | > 100 µM | > 100 µM | > 100 µM
Cc1ccc2c(c1)C=CC1(O2)N(c2ccccc2)C(=S)OC1(C)C (stereo not given) | > 100 µM | > 100 µM | > 100 µM | > 100 µM | > 100 µM | > 100 µM | > 100 µM | > 100 µM | > 100 µM | > 100 µM | > 100 µM | > 100 µM | > 100 µM | > 100 µM | > 100 µM | > 100 µM | > 100 µM | > 100 µM | > 100 µM | 
CC(NP(=O)(c1ccccc1)c1ccccc1)c1ccccc1 (stereo not given) | > 100 µM | > 100 µM | > 100 µM | > 100 µM | > 100 µM |  | > 100 µM | > 100 µM | > 100 µM | > 100 µM | > 100 µM | > 100 µM | > 100 µM | > 100 µM | > 100 µM | > 100 µM | > 100 µM | > 100 µM | > 100 µM | > 100 µM
CC1(C)OC[C@H](COCOP2(=O)Oc3ccc4ccccc4c3-c3c(ccc4ccccc34)O2)O1 | 33.4 µM | 31.3 µM | 63.3 µM | 31.9 µM | 28.5 µM |  | 28.6 µM | > 100 µM |  | 29.6 µM |  | 73 µM | 35.6 µM | 32.6 µM | 63.3 µM | 31 µM | 73.3 µM | 40 µM | 30.1 µM | 37.2 µM
O=CC(O)C(O)C1OC(=O)c2cc(O)c(O)c(O)c2C2=C(O)C(O)=C3OC(=O)c4c(c(O)c(O)c5c4C3C2C(=O)O5)-c2c(cc(O)c(O)c2O)C(=O)OCC1O (stereo not given) | > 100 µM | > 100 µM | 45.9 µM | 70.2 µM | 98.2 µM | > 100 µM | > 100 µM | > 100 µM | > 100 µM | 57 µM | > 100 µM | > 100 µM |  | > 100 µM | > 100 µM | > 100 µM | > 100 µM | > 100 µM | 30.4 µM | > 100 µM
Cc1c(NC(=O)CSC(=S)N(C)C)c(=O)n(-c2ccccc2)n1C | > 100 µM | > 100 µM | > 100 µM | > 100 µM |  | > 100 µM | > 100 µM | > 100 µM | > 100 µM | > 100 µM | > 100 µM | > 100 µM | > 100 µM | > 100 µM | > 100 µM | > 100 µM | > 100 µM | > 100 µM | > 100 µM | > 100 µM
CCOC(=O)c1c(N2CCOCC2)ncn(-c2cccc(Cl)c2)c1=O | > 100 µM | > 100 µM | > 100 µM | > 100 µM | > 100 µM | > 100 µM | > 100 µM | > 100 µM | > 100 µM | > 100 µM | > 100 µM |  | > 100 µM |  | > 100 µM | > 100 µM | > 100 µM | > 100 µM | > 100 µM | > 100 µM
